One assay addresses T1, rat B1R (Rattus norvegicus, UniProt P97583).
T1 construct: expressed in transfected cells; host or cells: CHO K1 cells
T1 sequence (P97583 1-337): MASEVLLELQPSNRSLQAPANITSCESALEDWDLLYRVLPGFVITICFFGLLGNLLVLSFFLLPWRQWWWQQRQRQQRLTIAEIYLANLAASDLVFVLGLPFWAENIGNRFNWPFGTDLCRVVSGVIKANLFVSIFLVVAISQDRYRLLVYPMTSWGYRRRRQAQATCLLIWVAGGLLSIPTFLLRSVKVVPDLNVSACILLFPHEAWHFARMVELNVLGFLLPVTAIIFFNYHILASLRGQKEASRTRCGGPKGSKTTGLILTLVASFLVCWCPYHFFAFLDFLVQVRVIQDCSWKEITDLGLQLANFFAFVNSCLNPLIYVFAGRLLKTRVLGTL
The assay is described as follows: FLIPR Ca2+ functional study on bradykinin receptor 1 (rB1R CHO K1 cells). It is filed as cell-based. Particulars: for inhibition at 10 µM: CHO-K1, % inhibition rat B1R at 10 μM, read-out: % inh. (rat B1R) 10 μM; for % inh. (rat B1R) 10 μM: % inhibition rat B1R at 10 μM. In short, it runs like this:
(§1)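 Antagonism was calculated as % of maximal inhibition of the Ca2+ rise triggered by agonist at EC80 (Lys-Des-Arg9-bradykinin for hB1R, Des-Arg9-bradykinin for rB1R), added 10-20 min after test compound (10 μM or serial dilutions for IC50) to Fluo-4-loaded transfected CHO K1 cells on FLIPR. Duplicates or triplicates, ≥2 independent runs.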

The target of another assay is T2, human B1R (Homo sapiens, UniProt P46663).
T2 construct: expressed in transfected cells; host or cells: CHO K1 cells
T2 sequence (P46663 1-353): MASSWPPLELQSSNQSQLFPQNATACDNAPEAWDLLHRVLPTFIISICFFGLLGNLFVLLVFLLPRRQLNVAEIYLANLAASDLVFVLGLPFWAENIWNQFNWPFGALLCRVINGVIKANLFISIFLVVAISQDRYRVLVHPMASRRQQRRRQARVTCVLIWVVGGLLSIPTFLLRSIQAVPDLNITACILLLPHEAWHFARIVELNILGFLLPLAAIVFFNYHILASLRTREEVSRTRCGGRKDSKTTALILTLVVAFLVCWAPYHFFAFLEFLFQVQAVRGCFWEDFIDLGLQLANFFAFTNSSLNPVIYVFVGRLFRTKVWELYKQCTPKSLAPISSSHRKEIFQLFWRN
The assay is described as follows: FLIPR Ca2+ functional study on bradykinin receptor 1 (hB1R CHO K1 cells). Format: cell-based. Particulars: % inhibition human B1R at 10 μM; for inhibition at 10 µM: read-out: % inh. (hum. B1R) 10 μM. The method in brief: as §1

Each structure is given as a SMILES string. Where a name gives a salt, the structure may show the parent alone.

On to `Cc1cccc(Cl)c1S(=O)(=O)N(CCOc1nccc(N2CCC3(CCN(c4ccncc4)CC3)CC2)n1)C1CC1` [Example G-009, 2-chloro-N-cyclopropyl-6-methyl-N-[2-[[4-[9-(4-pyridyl)-3,9-diazaspiro[5.5]undecan-3-yl]-2-pyrimidinyl]oxy]ethyl]benzenesulfonamide], for which the inhibition at 10 µM at rat B1R turned out to be 91%; on human B1R, 97%.
With `COc1cc(C)c(S(=O)(=O)N(CCOc2nccc(N3CC(N4CCc5cc(CN6CCC6)ccc5C4)C3)n2)C2CC2)c(C)c1` [Example G-020, N-[2-[[4-[3-[6-(1-azetidinylmethyl)-3,4-dihydro-1H-isoquinolin-2-yl]-1-azetidinyl]-2-pyrimidinyl]oxy]ethyl]-N-cyclopropyl-4-methoxy-2,6-dimethylbenzenesulfonamide], the values for the inhibition at 10 µM on rat B1R and on human B1R were 101% and 95%, respectively.
On to `COc1cc(C)c(S(=O)(=O)N2CCCCC2COc2ccnc(N3CCC4(CCN(c5ccncc5)CC4)CC3)n2)c(C)c1` (stereo not drawn) [H_CC-032], for which the “% inh. (rat B1R) 10 μM” value on rat B1R was 101%. Moreover, on human B1R, the “% inh. (hum. B1R) 10 μM” value worked out at 77%.
Take `COc1cc(C)c(S(=O)(=O)N(CCOc2nccc(N3CCC4(CCN(c5ccncc5)C4)C3)n2)C2CC2)c(C)c1` (stereo not drawn) [Example G-014, N-cyclopropyl-4-methoxy-2,6-dimethyl-N-[2-[[4-[8-(4-pyridyl)-3,8-diazaspiro[4.4]nonan-3-yl]-2-pyrimidinyl]oxy]ethyl]benzenesulfonamide]: the inhibition at 10 µM is 102% at rat B1R and 100% at human B1R.
On the same counts, the results for `Cc1ccc(Cl)c(S(=O)(=O)N(CCOc2nccc(N3CCC4(CCN(c5ccncc5)CC4)CC3)n2)C2CC2)c1Cl` [Example G-021, 2,6-dichloro-N-cyclopropyl-3-methyl-N-[2-[4-(9-pyridin-4-yl-3,9-diazaspiro[5.5]undecan-3-yl)-pyrimidin-2-yl]oxy-ethyl]-benzenesulfonic acid amide] are 86% and 90%.
Take `COc1cc(C)c(S(=O)(=O)N2CCCC(Oc3nccc(N4CCC5(CCN(c6ccncc6)CC5)CC4)n3)C2)c(C)c1` (stereo not drawn) [G_CC-041, 9-[2-[[1-(4-methoxy-2,6-dimethylphenyl)sulfonyl-3-piperidinyl]oxy]-4-pyrimidinyl]-3-(4-pyridyl)-3,9-diazaspiro[5.5]undecane]: the inhibition at 10 µM at rat B1R turned out to be 101%; at human B1R, 96%.
As to `COc1cc(C)c(S(=O)(=O)N(C)C(COc2nccc(N3CCC(Oc4ccncc4)CC3)n2)c2ccccc2)c(C)c1` (stereo not drawn) [G_CC-063, 4-methoxy-N,2,6-trimethyl-N-[1-phenyl-2-[[4-[4-(4-pyridyloxy)-1-piperidinyl]-2-pyrimidinyl]oxy]ethyl]benzenesulfonamide], the values for the inhibition at 10 µM on rat B1R and at human B1R were 101% and 28%, respectively.
Consider `COc1cc(C)c(S(=O)(=O)N(CCOc2nccc(N3CCC(OCCN4CCCC4)(c4cccnc4)CC3)n2)C2CC2)c(C)c1` [Example G-007, N-cyclopropyl-4-methoxy-2,6-dimethyl-N-[2-[[4-[4-(3-pyridyl)-4-(2-1-pyrrolidinylethoxy)-1-piperidinyl]-2-pyrimidinyl]oxy]ethyl]benzenesulfonamide], for which the figures for the inhibition at 10 µM at rat B1R and on human B1R were 97% and 100%, respectively.
Regarding `COc1cc(C)c(S(=O)(=O)N2CCC[C@H]2COc2nccc(N3CCN(c4ccncc4)CC3)n2)c(C)c1` [G_CC-019, 2-[[(2S)-1-(4-methoxy-2,6-dimethylphenyl)sulfonyl-2-pyrrolidinyl]methoxy]-4-[4-(4-pyridyl)-1-piperazinyl]pyrimidine], the inhibition at 10 µM at rat B1R came to 104%; at human B1R, 100%.
On to `COc1cc(C)c(S(=O)(=O)N2CCCCC2COc2ccnc(N(C)CCN3CCC(c4ccccc4)(N(C)C)CC3)n2)c(C)c1` (stereo not drawn) [Example H-004], for which the “% inh. (rat B1R) 10 μM” value on rat B1R (10 µM) was determined as 93%. Also, the inhibition at 10 µM on human B1R stood at 99%.
Regarding `COc1cc(C)c(S(=O)(=O)N2CCC[C@H]2COc2nccc(N3CCC4(CC3)CCN(c3ccc(F)cc3)C4=O)n2)c(C)c1` [G_CC-048, 3-(4-fluorophenyl)-8-[2-[[(2S)-1-(4-methoxy-2,6-dimethylphenyl)sulfonyl-2-pyrrolidinyl]methoxy]-4-pyrimidinyl]-3,8-diazaspiro[4.5]decan-4-one], the inhibition at 10 µM was found to be 96% at rat B1R and 28% on human B1R.
Take `COc1cc(C)c(S(=O)(=O)N2CC(Oc3ccnc(N4CCC5(CCN(c6ccncc6)CC5)CC4)n3)C2)c(C)c1` [Example H-007, 3-[4-[[1-(4-methoxy-2,6-dimethylphenyl)sulfonyl-3-azetidinyl]oxy]-2-pyrimidinyl]-9-(4-pyridyl)-3,9-diazaspiro[5.5]undecane]: the values for the inhibition at 10 µM on rat B1R and at human B1R were 80% and 11%, respectively.
With `COc1cc(C)c(S(=O)(=O)N(C)C(COc2nccc(N3CCC4(CCN(Cc5ccc(F)cc5)C4=O)CC3)n2)c2ccccc2)c(C)c1` (stereo not drawn) [G_CC-060, N-[2-[[4-[3-[(4-fluorophenyl)methyl]-4-oxo-3,8-diazaspiro[4.5]decan-8-yl]-2-pyrimidinyl]oxy]-1-phenylethyl]-4-methoxy-N,2,6-trimethylbenzenesulfonamide], the inhibition at 10 µM at rat B1R worked out at 88%; on human B1R it was 17%.
For the compound `COc1cc(C)c(S(=O)(=O)N(CCOc2nccc(N3CCC4(CCN(c5ccncc5)CC4)C3)n2)C2CC2)c(C)c1` [Example G-019, N-cyclopropyl-4-methoxy-2,6-dimethyl-N-[2-[[4-[8-(4-pyridyl)-3,8-diazaspiro[4.5]decan-3-yl]-2-pyrimidinyl]oxy]ethyl]benzenesulfonamide], the inhibition at 10 µM came out at 102% at rat B1R and 100% at human B1R.
On to `COc1cc(C)c(S(=O)(=O)N(C)CCOc2nccc(N(C)CCN3CCC(c4ccccc4)(N(C)C)CC3)n2)c(C)c1` [Example G-003, N-[2-[[4-[2-(4-dimethylamino-4-phenyl-1-piperidinyl)ethyl-methylamino]-2-pyrimidinyl]oxy]ethyl]-4-methoxy-N,2,6-trimethylbenzenesulfonamide], for which the “% inh. (rat B1R) 10 μM” value on rat B1R (10 µM) is reported as 112%. Moreover, the inhibition at 10 µM at human B1R turned out to be 101%.
Consider `COc1cc(C)c(S(=O)(=O)N(CCCOc2nccc(N3CCC4(CCN(c5ccncc5)CC4)CC3)n2)C2CC2)c(C)c1` [Example G-025, N-cyclopropyl-4-methoxy-2,6-dimethyl-N-[3-[4-(9-pyridin-4-yl-3,9-diazaspiro[5.5]undecan-3-yl)-pyrimidin-2-yl]oxy-propyl]-benzenesulfonic acid amide], for which the inhibition at 10 µM at rat B1R is 104%; at human B1R, 92%.
Taken in the same sequence, the figures for `COc1cc(C)c(S(=O)(=O)N(CCOc2cc(N3CCC4(CCN(c5ccncc5)CC4)CC3)ncn2)C2CC2)c(C)c1` [Example I-001, N-cyclopropyl-4-methoxy-2,6-dimethyl-N-[2-[[6-[9-(4-pyridyl)-3,9-diazaspiro[5.5]undecan-3-yl]-4-pyrimidinyl]oxy]ethyl]benzenesulfonamide] were 88% and 98%.
For the compound `COc1cc(C)c(S(=O)(=O)N(CCOc2nccc(N3CCC4(CCN(c5ccncc5)CC4)CC3)n2)C2CC2)c(C)c1` [Example G-005, N-cyclopropyl-4-methoxy-2,6-dimethyl-N-[2-[[4-[9-(4-pyridyl)-3,9-diazaspiro[5.5]undecan-3-yl]-2-pyrimidinyl]oxy]ethyl]benzenesulfonamide hydrochloride], the inhibition at 10 µM on rat B1R turned out to be 96%; on human B1R, 99%.
